According to patent publication US20240418701A1, “SINGLE MOLECULE IDEN[…] A REACTIVE HETERO-NANOPORE” (priority 2021, published 2024):

Tests used:
Octameric M2 MspA = target: T1, Octameric M2 MspA (Mycolicibacterium smegmatis, UniProt A0QR29, D117N/D118N/D120N/D145R/D161R/E166K); experiment: Alditol sensing using M2 MspA nanopore (control without PBA); format: binding, Mycobacterium smegmatis; conditions: alditol 4 mM in cis, +100 mV
T1 construct: made in house; host or cells: E. coli BL21 (DE3)
T1 sequence (A0QR29 28-211 D117N/D118N/D120N/D145R/D161R/E166K): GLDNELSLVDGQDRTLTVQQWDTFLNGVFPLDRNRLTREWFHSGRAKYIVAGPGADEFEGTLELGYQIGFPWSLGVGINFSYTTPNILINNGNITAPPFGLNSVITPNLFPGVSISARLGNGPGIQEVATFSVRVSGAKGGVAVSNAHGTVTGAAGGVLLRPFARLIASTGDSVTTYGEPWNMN
Method: FIG. 87: Alditol sensing using M2 MspA nanopore. Glycerol, erythritol, xylitol and sorbitol were used as the representative alditols with different number of hydroxyl groups. All measurements were carried out as described in Methods 1 in Example 3. Octameric M2 MspA was applied as the nanopore sensor. A transmembrane potential of +100 m V was continually applied. Each alditol was added to cis with a final concentration of 4 mM.
The octameric M2 MspA was used as a control in FIG. 87. It was expressed with E. coli BL21 (DE3) and purified by nickel affinity chromatography as reported previously.^1

[1] = target: T2, MspA-PBA (boronic acid appended hetero-octameric MspA) (Mycolicibacterium smegmatis, UniProt A0QR29, D117C/D118N/D120N/D145R/D161R/E166K); experiment: Single channel recording of alditol binding to MspA-PBA nanopore (standards and zero-sugar drinks); set-up: species or system Mycobacterium smegmatis; conditions: N=3; for ratio (mean current percentage blockage) / std (standard deviation of the blocking level): alditol 4 mM (glycerol 8 mM) in cis
T2 construct: H6 (hexa-histidine) (C); 3-(maleimide) phenylboronic acid (MPBA) adduct on the thiol of Cys90; made in house; host or cells: E. coli BL21 (DE3) pLysS, co-expression from pETDuet-1
T2 sequence (A0QR29 other isoform, or with tags, fused parts or gaps D117N/D118N/D120N/D145R/D161R/E166K): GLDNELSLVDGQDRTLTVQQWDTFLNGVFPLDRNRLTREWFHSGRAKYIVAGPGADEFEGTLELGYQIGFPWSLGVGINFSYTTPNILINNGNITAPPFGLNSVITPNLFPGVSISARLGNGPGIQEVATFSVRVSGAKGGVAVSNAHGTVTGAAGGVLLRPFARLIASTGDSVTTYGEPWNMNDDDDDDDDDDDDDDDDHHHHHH
T2 sequence (A0QR29 other isoform, or with tags, fused parts or gaps D117C/D118N/D120N/D145R/D161R/E166K): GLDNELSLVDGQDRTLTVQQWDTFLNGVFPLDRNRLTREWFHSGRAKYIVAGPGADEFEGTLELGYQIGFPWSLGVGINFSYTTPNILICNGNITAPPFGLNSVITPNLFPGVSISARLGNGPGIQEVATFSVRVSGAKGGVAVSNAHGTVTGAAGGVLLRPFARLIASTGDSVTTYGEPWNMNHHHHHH
Method: FIG. 88: Definition of event parameters. (a) A representative electrophysiology trace containing nanopore events. Xylitol was treated as the model analyte. I0 is the open pore current and Ib is the residual current caused by alditol blockade. ratio is derived from (I0−Ib)/I0, which is defined as the percentage blockage. τoff represents the dwell time of an event. τon represents the inter-event interval. std is the standard deviation value of the blockage level. (b-c) The histogram plot of ratio (b) and std (c) acquired from a continually recorded trace. The histograms were Gaussian fitted and the peaks of the fitting results respectively represent the mean value of ratio and the mean std. (d-e) The histogram plots of τoff (d) and τon (e) acquired from a continually recorded trace. The histogram plots were respectively fit to a single exponential curve, according to the equation y=a*exp (−x/τ), from which the mean event dwell time (τoff) (d) and the mean inter-event interval (τon) (e) were respectively derived. If not otherwise stated, all results in this manuscript were described by event parameters defined above.
All subsequent nanopore measurements were carried out with a 1.5 M KCl buffer (1.5 M KCl, 10 mM 3-(N-Morpholino) propanesulfonic acid (MOPS), pH 7.0) and a +100 m V continually applied potential (Method 1 in Example 3). 13 types of alditols, which were derived from the reduction of the carbonyl group of C3-C6 monoaldoses were treated as model polyols (FIGS. 77b and 83). The PBA of MspA-PBA can complex with a polyol, forming a cyclic ester at the pore constriction and resulting in the corresponding nanopore event being reported. All alditols were added to the cis side of the pore and the final concentration of alditols was set at 4 mM with the exception of glycerol, which was set at 8 mM instead. […] In addition, single molecule sensing of glycerol and D-Sorbitol by MspA-PBA are as shown in FIGS. 104 and 105, respectively.
To describe the sensing events quantitatively, event parameters such as the open-pore current (I0), the current blockade (Ib), the percentage blockage (ratio), the event dwell time (τoff), the inter-event intervals (τon) and the standard deviation value of the blockage level (std) were defined as described in FIG. 88. The percentage blockage, also referred to for simplicity as ratio, is defined as (I0−Ib)/I0.
Quantitatively, the reciprocal of the mean inter-event interval (1/τon, N=3) is linearly correlated with the alditol concentration, consistent with a bimolecular model. The mean event dwell time τoff (N=3) however is independent of the alditol concentration, and this is consistent with a unimolecular dissociation mechanism (FIGS. 89e-92e, Table 18). […] The binding constant for borate cyclic ester formation for alditols increases as the number of hydroxyl groups in the alditol increases (FIG. 77c and Table 18), consistent with conclusions drawn previously from the corresponding NMR measurements.^52 Nanopore measurements were also performed with different applied voltages. […] This is expected because all alditols tested in this paper are electrically neutral and the formation of a borate ester is independent of the local electric field.
All nanopore measurements were performed as described previously.^1,2 Briefly, the measurement device has two custom chambers separated by a thick Teflon film containing a drilled (˜100 μm) aperture. Before the measurement, the aperture was first treated with 0.5% (v/v) hexadecane in pentane and set for pentane evaporation. Electrolyte buffer (500 μL) was added to the electrically grounded chamber (cis chamber) and the opposing chamber (trans chamber). All nanopore measurements in this paper were performed with a 1.5 M KCl buffer (1.5 M KCl, 10 mM MOPS, pH 7.0). Two custom-made Ag/AgCl electrodes were placed in both chambers in contact with the buffers and the patch-clamp amplifier to form a closed circuit. […]

[2] = target: T3, MspA-PBA (phenylboronic acid modified hetero-octameric (N90C)1(M2)7 MspA) (Mycolicibacterium smegmatis, UniProt A0QR29, D117C/D118N/D120N/D145R/D161R/E166K); format: binding, Mycobacterium smegmatis; conditions: +200 mV
T3 construct: H6 (hexa-histidine) (C); 3-(maleimide) phenylboronic acid (MPBA) adduct on the thiol of Cys90; made in house; host or cells: E. coli BL21 (DE3) pLysS, co-expression from pETDuet-1
Method: FIG. 46: Definition of event parameters. […] The measurement was carried out as described in Methods in Example 2. The chambers were filled with a 1.5 M KCl buffer (1.5 M KCl, 10 mM MOPS, pH 7.0). A transmembrane potential of +200 mV was continually applied. AMP was added to cis with a final concentration of 300 μM. The open pore current (Ip), the residual current (Ib), the dwell time (τoff) and the inter-event duration (τon) are defined as marked on the trace. The percentage blockage (% Ib) is defined as (Ip−Ib)/Ip. The noise amplitude (S.D.) is defined as the standard deviation of the blockage level.
NMPs consist of a ribose, a phosphate group and a nucleobase, serving as monomeric units of RNA. […] Experimentally, single channel recording was performed using MspA-PBA in a 1.5 M KCl buffer (1.5 M KCl, 10 mM MOPS, pH 7.0) (Methods in Example 2). A transmembrane potential of +200 mV was continually applied. Four canonical NMPs, adenine mononucleotide (AMP), guanine mononucleotide (GMP), cytosine mononucleotide (CMP) and uracil mononucleotide (UMP) were tested as analytes (FIG. 33d). Either type of NMP was added to cis at a final concentration of 300 μM. Subsequently, successive resistive pulses caused by either type of NMP were immediately observed (FIG. 33d). However, no events were observed when M2 MspA was tested, confirming that the PBA located at the pore constriction is critical in the generation of NMP sensing events (FIG. 44). At this condition, ˜1800 events/h were obtained from each pore. The pore could normally withstand a few hours of continuous measurement. Deoxyribonucleoside monophosphate (dNMP) fails to report any event when sensed by MspA-PBA (FIG. 45). This is expected because dNMPs have no cis-diol structure and can't form the boronate ester which is necessary for sensing. The molecular mechanism of sensing which results from reversible covalent bond formation between an NMP and the PBA at the pore constriction is thus confirmed.
To describe NMP sensing events quantitatively, the event dwell time (τoff), the inter-event interval (τon), the percentage blockage (% Ib=(Ip−Ib)/Ip) and the noise amplitude (S.D.) were derived as described in FIG. 46. Generally, the histograms of τoff and τon show an exponential distribution, and could be fitted to derive the mean time constants τoff or τon, respectively. The histograms of % Ib and S.D. show a Gaussian distribution, which could be fitted to derive the mean percentage blockage % Ib and S.D., respectively. During NMP sensing, by varying the NMP concentrations in cis, the reciprocal of dwell time (1/τoff) remains constant, consistent with a unimolecular dissociation mechanism. Whereas the reciprocal of the inter-event interval (1/τon) linearly correlates with the NMP concentration in cis (Tables 8-11, FIG. 47-50), consistent with a bimolecular model. The dependence of the applied voltage during NMP sensing was investigated using AMP as a representative analyte. […] This is expected because in a pH 7.0 buffer, the phosphate group of NMP is negatively charged and the electrophoretic force applied on the NMP analyte can strongly regulate the rate of event appearance and the event dwell time.

[3] = voltage series: +60 mV, glycerol 12 mM, other alditols 8 mM
[4] = voltage series: +80 mV, glycerol 12 mM, other alditols 8 mM
[5] = voltage series: +100 mV, glycerol 12 mM, other alditols 8 mM
[6] = voltage series: +120 mV, glycerol 12 mM, other alditols 8 mM

OC[C@@H](O)[C@@H](O)[C@H](O)[C@@H](O)CO [D-sorbitol]
binding events with M2 MspA (Octameric M2 MspA): No binding events were observed
ratio (mean current percentage blockage) ([1]; +100 mV): 30.43 ± 0.06%
std (standard deviation of the blocking level) ([1]; +100 mV): 5.30 ± 0.17 pA
1/τon ([1]; alditol 2 mM in cis, +100 mV): 0.40 ± 0.04 s⁻¹
τoff ([1]; alditol 2 mM in cis, +100 mV): 2.1 ± 0.3 s
1/τon ([1]; alditol 4 mM in cis, +100 mV): 0.81 ± 0.09 s⁻¹
τoff ([1]; alditol 4 mM in cis, +100 mV): 2.11 ± 0.12 s
1/τon ([1]; alditol 6 mM in cis, +100 mV): 1.2 ± 0.2 s⁻¹
τoff ([1]; alditol 6 mM in cis, +100 mV): 2.2 ± 0.2 s
1/τon ([1]; alditol 8 mM in cis, +100 mV): 1.7 ± 0.1 s⁻¹
τoff ([1]; alditol 8 mM in cis, +100 mV): 2.2 ± 0.3 s
1/τon [1, 3]: 1.67 ± 0.03 s⁻¹
1/τon [1, 4]: 1.60 ± 0.06 s⁻¹
1/τon [1, 5]: 1.70 ± 0.06 s⁻¹
1/τon [1, 6]: 1.70 ± 0.05 s⁻¹

OC[C@@H](O)[C@H](O)[C@@H](O)[C@@H](O)CO [L-sorbitol]
ratio (mean current percentage blockage) ([1]; +100 mV): 30.77 ± 0.06%
std (standard deviation of the blocking level) ([1]; +100 mV): 5.97 ± 0.04 pA

OC[C@@H](O)[C@@H](O)[C@@H](O)CO [adonitol]
ratio (mean current percentage blockage) ([1]; +100 mV): 24.13 ± 0.15%
std (standard deviation of the blocking level) ([1]; +100 mV): 3.83 ± 0.07 pA

OC[C@@H](O)[C@@H](O)[C@@H](O)[C@@H](O)CO [allitol]
ratio (mean current percentage blockage) ([1]; +100 mV): 27.57 ± 0.06%
std (standard deviation of the blocking level) ([1]; +100 mV): 4.64 ± 0.03 pA

OC[C@@H](O)C(O)[C@H](O)CO [arabitol]
ratio (mean current percentage blockage) ([1]; +100 mV): 25.13 ± 0.15%
std (standard deviation of the blocking level) ([1]; +100 mV): 4.71 ± 0.03 pA

Nc1ncnc2c1ncn2[C@H]1C[C@H](O)[C@@H](COP(=O)(O)O)O1 [dAMP, 2′-deoxyadenosine-5′-phosphate]
sensing events with MspA-PBA ([2]; analyte 1 mM in cis): no dAMP sensing events were observed

OC[C@@H](O)[C@H](O)[C@H](O)[C@@H](O)CO [dulcitol]
ratio (mean current percentage blockage) ([1]; +100 mV): 28.9 ± 0.3%
std (standard deviation of the blocking level) ([1]; +100 mV): 5.22 ± 0.06 pA

OC[C@@H](O)[C@@H](O)CO [erythritol]
binding events with M2 MspA (Octameric M2 MspA): No binding events were observed
ratio (mean current percentage blockage) ([1]; +100 mV): 22.00±0.17%
std (standard deviation of the blocking level) ([1]; +100 mV): 3.24±0.18 pA
1/τon ([1]; alditol 2 mM in cis, +100 mV): 0.42 ± 0.05 s⁻¹
τoff ([1]; alditol 2 mM in cis, +100 mV): 0.0424 ± 0.0005 s
1/τon ([1]; alditol 4 mM in cis, +100 mV): 0.80 ± 0.05 s⁻¹
τoff ([1]; alditol 4 mM in cis, +100 mV): 0.0434 ± 0.0032 s
1/τon ([1]; alditol 6 mM in cis, +100 mV): 1.16 ± 0.03 s⁻¹
τoff ([1]; alditol 6 mM in cis, +100 mV): 0.0423 ± 0.0023 s
1/τon ([1]; alditol 8 mM in cis, +100 mV): 1.59 ± 0.09 s⁻¹
τoff ([1]; alditol 8 mM in cis, +100 mV): 0.0442 ± 0.0015 s
1/τon [1, 3]: 1.62 ± 0.10 s⁻¹
1/τon [1, 4]: 1.65 ± 0.11 s⁻¹
1/τon [1, 5]: 1.64 ± 0.10 s⁻¹
1/τon [1, 6]: 1.65 ± 0.06 s⁻¹

OC[C@@H](O)[C@H](O)[C@@H](O)[C@H](O)CO [iditol]
ratio (mean current percentage blockage) ([1]; +100 mV): 29.3 ± 0.2%
std (standard deviation of the blocking level) ([1]; +100 mV): 6.64 ± 0.03 pA

OC[C@@H](O)[C@@H](O)[C@H](O)[C@H](O)CO [mannitol]
ratio (mean current percentage blockage) ([1]; +100 mV): 29.2 ± 0.3%
std (standard deviation of the blocking level) ([1]; +100 mV): 3.09 ± 0.17 pA

OC[C@@H](O)[C@H](O)[C@H](O)[C@H](O)CO [talitol]
ratio (mean current percentage blockage) ([1]; +100 mV): 27.3 ± 0.2%
std (standard deviation of the blocking level) ([1]; +100 mV): 6.33 ± 0.06 pA

OC[C@@H](O)[C@H](O)CO [threitol]
ratio (mean current percentage blockage) ([1]; +100 mV): 20.3 ± 0.2%
std (standard deviation of the blocking level) ([1]; +100 mV): 5.84 ± 0.18 pA

O=c1[nH]cc([C@@H]2O[C@H](COP(=O)(O)O)[C@@H](O)[C@H]2O)c(=O)[nH]1 [Ψ, Pseudouridine-5′-monophosphate]
% Ib (percentage blockage) ([2]; NMP 300 μM in cis, N=3): 10.2 ± 0.2%
S.D. (noise amplitude of blockage level) ([2]; NMP 300 μM in cis, N=3): 2.40 ± 0.05 pA
τoff (mean dwell time) ([2]; NMP 300 μM in cis, N=3): 36.9 ± 3.4 ms
τon (mean inter-event interval) ([2]; NMP 300 μM in cis, N=3): 2047.7 ± 283.8 ms
Calibration coefficient δ (NMP binding events per unit concentration per min) ([2]; sole NMP 300 μM in cis, three independent measurements): 0.099 ± 0.014 µM⁻¹ min⁻¹
